Values of other authors, collected in US20180168149A1, “INSECTICIDAL COMPOSITIONS” (HOMS, LLC, priority 2015, published 2018).

System: male rats

## C=C(C)[C@H]1CC=C(C)CC1 [d-limonene]
  tumors on chronic exposure: significant incidence of renal tubular tumors
